Test results published in patent publication US4528393A, “Derivatives having expectorant activity, the procedure for their preparation and the pharmaceutical compositions which contain them” (Magis Farmaceutici S.R.L., priority 1983, dated 1985).

How the values were obtained:
[1] = Acute toxicity in the guinea pig (DL50, Litchfield and Wilcoxon method); details: in vivo
Description: (§1) where R is as defined above, in the presence of an alkaline carbonate and of a catalyst, to obtain the corresponding formula (I) compound, as defined above, which, optionally, is salified. The new formula (I) compounds and their pharmaceutically acceptable salts, which form the object of this invention, have expectorant characteristics which are very useful for therapeutic applications. […] The peak level in the blood is reached 20-40 minutes after oral administration. This determines higher concentrations of active principle. With dogs, the half-life of the new derivatives in the blood is from 25-30 hours. It is also to be underlined that the new compounds are stable in both the stomach and the intestinal tract, hydrolizing after being absorbed. The complete reliability of the new compounds was determined by evaluating their acute toxicity. Acute toxicity was studies in the mouse, rat and guinea pig, comparing with ambroxol hydrochloride. The DL50 values were calculated by following the Litchfield and Wilcoxon method (Pharm. Exp. Therap. 1949, 96,99).

[2] = Acute toxicity in the rat (DL50, Litchfield and Wilcoxon method); details: in vivo
Description: as §1

[3] = test system: mouse; experiment: Acute toxicity in the mouse (DL50, Litchfield and Wilcoxon method); type: in vivo; details: os
Description: as §1

[4] = as above; type: in vivo; details: in vivo
Description: as §1

SMILES	LD50 ([1]; ip) [mg/kg]	LD50 ([1]; po, os) [mg/kg]	LD50 ([2]; ip) [mg/kg]	LD50 ([2]; po, os) [mg/kg]	DL50 [3] [mg/kg]	LD50 ([4]; ip) [mg/kg]	LD50 ([4]; iv) [mg/kg]	LD50 ([4]; po, os) [mg/kg]
Nc1c(Br)cc(Br)cc1CN[C@H]1CC[C@H](O)CC1 [Ambroxol Hydrochlorate, N-(2-amino-3,5-dibromobenzyl)-trans-4-amino-cyclohexanol, reference compound]	280	1180	380	13400	2750	268	138	–
COc1ccccc1OCC(=O)O[C@H]1CC[C@H](NCc2cc(Br)cc(Br)c2N)CC1 [E/6001, N-(2-amino-3,5-dibromobenzyl)-trans-4-amino-1-(guaiacolglycolyl)-cyclohexane]	390	1650	532	18700	–	375	194	3850
COc1cc(C)ccc1OCC(=O)O[C@H]1CC[C@H](NCc2cc(Br)cc(Br)c2N)CC1 [E/6002]	400	1700	550	19600	–	390	201	4000
Cc1cccc(OCC(=O)O[C@H]2CC[C@H](NCc3cc(Br)cc(Br)c3N)CC2)c1 [E/6003, N-(2-amino-3,5-dibromobenzyl)-trans-4-amino-1-(m-cresolglycolyl)cyclohexane]	380	1600	510	18000	–	360	187	3700
Cc1ccccc1OCC(=O)O[C@H]1CC[C@H](NCc2cc(Br)cc(Br)c2N)CC1 [E/6004]	375	1610	500	18000	–	365	187	3700
Cc1ccc(OCC(=O)O[C@H]2CC[C@H](NCc3cc(Br)cc(Br)c3N)CC2)cc1 [E/6005]	380	1600	500	17800	–	360	180	3700
Cc1ccc(C(C)C)c(OCC(=O)O[C@H]2CC[C@H](NCc3cc(Br)cc(Br)c3N)CC2)c1 [E/6006, N-(2-amino-3,5-dibromobenzyl)-trans-4-amino-1-(thymolglycolyl)cyclohexane]	400	1680	540	19000	–	380	197	3900
Cc1ccc(C(C)C)cc1OCC(=O)O[C@H]1CC[C@H](NCc2cc(Br)cc(Br)c2N)CC1 [E/6007, N-(2-amino-3,5-dibromobenzyl)-trans-4-amino-1-(carvacrolglycolyl)cyclohexane]	410	1700	530	18500	–	390	190	3900
